Reference: patent US10329242B2, “Process for purifying long chain amino acids” (VITAWORKS IP, LLC, priority 2017, dated 2019)
Structures can show the parent of a compound that is named as a salt.

Columns and labels:
[1] = Solubility of bisulfate salts in 1 M solution of sulfuric acid; format: physicochemical; settings: for solubility: temperature below 40° C.; for solubility change with temperature: temperature increased from 60° C. to 80° C. and above
[2] = Solubility in water and aqueous solution of acetic acid; format: physicochemical; settings: aqueous solution of 10% (wt/wt) acetic acid at 80° C.

Structure (SMILES): NCCCCCCCCCCC(=O)O [11-aminoundecanoic acid]
- solubility [1]: negligible solubility
- solubility change with temperature [1]: drastically increased
- solubility [2]: up to 45 % (wt/wt)

Structure (SMILES): NCCCCCCCCCCCC(=O)O [bisulfate salt of 12-aminolauric acid, 12-aminolauric acid]
- solubility [1]: negligible solubility
- solubility change with temperature [1]: drastically increased
